Measured values taken from patent US20070141641A1, “Compositions & methods for reformulating biological membranes for arrays” (priority 2003, published 2007).

Tests used:
[1] = system: MOTR, NTR1, ORL1, OP1 receptor microspots; assay: GPCR membrane microarray, labeled-ligand cocktail binding with or without telenzepine, other receptor microspots; conditions: 1 μM telenzepin, FIG. 1B
Excerpt: (§1) FIG. 1A and FIG. 1B are false-color fluorescence images of two membrane microarrays made using six different GPCR-membrane preparations (from left to right, they are HEK cell membrane as control, muscarinic receptor subtype 1 (M1), motilin receptor (MOTR), neurotensin receptor subtype 1 (NTR1), opioid receptor like subtype 1 (ORL1) and delta 2 opioid receptor (OP1)).
(§2) FIGS. 1A & 1B are false-color fluorescence image of a membrane microarray made using six different GPCR-membrane preparations. The images, in Cy5 to Cy3 ratio, are taken after the array is assayed with a binding buffered solution containing a mixture or cocktail solution of labeled ligands. […] FIGS. 1A and 1B are, respectively, in the absence and presence of 1 μM telenzepin. Before array fabrication, all receptor membranes obtained from commercial vendors are re-formulated using a standardized ink containing: ˜20 mM Tris-HCl, pH 7.4, ˜10 mM MgCl2, ˜10% sucrose, 5% glycerol, 0.5% BSA, total membrane proteins in the range of 1 to 3 mg/ml.

[2] = biological target: T1, muscarinic receptor subtype 1 (M1) (Homo sapiens, UniProt P11229); assay: GPCR membrane microarray, labeled-ligand cocktail binding with or without telenzepine, M1 microspots; conditions: 1 μM telenzepin; cocktail with 2 nM Cy3-B-telenzepine; FIG. 1B
T1 sequence (P11229 1-460): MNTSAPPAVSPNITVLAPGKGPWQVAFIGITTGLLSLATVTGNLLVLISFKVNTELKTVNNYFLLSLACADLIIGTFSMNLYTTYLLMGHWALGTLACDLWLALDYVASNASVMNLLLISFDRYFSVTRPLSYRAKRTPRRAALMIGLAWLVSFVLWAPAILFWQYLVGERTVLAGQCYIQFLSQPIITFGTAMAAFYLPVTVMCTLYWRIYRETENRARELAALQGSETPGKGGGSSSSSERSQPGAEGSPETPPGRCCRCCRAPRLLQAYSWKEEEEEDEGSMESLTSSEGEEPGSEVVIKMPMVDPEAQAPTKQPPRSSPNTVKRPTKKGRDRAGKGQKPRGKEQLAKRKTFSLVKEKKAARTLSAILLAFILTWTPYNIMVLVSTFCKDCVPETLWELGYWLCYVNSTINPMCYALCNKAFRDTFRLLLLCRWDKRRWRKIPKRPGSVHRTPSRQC
Excerpt: as §1, §2

Cc1scc2c1N(C(=O)CN1CCN(C)CC1)c1ccccc1NC2=O [telenzepine]
inhibition of labeled ligand binding to other receptor microspots [1]: not any other receptor microspots | inhibition of labeled ligand binding to M1 microspots [2]: specifically inhibits the binding of labeled ligand to M1 microspots
